For 38 compounds, IC50 results are on record in patent US6147100A, “Pyrrolidine derivatives having phospholipase A2 inhibitory activity” (Shionogi & Co., Ltd., priority 1997, dated 2000).

For the test, the target named is T1, cPLA2 (Homo sapiens, UniProt P47712).
T1 sequence (P47712 1-749): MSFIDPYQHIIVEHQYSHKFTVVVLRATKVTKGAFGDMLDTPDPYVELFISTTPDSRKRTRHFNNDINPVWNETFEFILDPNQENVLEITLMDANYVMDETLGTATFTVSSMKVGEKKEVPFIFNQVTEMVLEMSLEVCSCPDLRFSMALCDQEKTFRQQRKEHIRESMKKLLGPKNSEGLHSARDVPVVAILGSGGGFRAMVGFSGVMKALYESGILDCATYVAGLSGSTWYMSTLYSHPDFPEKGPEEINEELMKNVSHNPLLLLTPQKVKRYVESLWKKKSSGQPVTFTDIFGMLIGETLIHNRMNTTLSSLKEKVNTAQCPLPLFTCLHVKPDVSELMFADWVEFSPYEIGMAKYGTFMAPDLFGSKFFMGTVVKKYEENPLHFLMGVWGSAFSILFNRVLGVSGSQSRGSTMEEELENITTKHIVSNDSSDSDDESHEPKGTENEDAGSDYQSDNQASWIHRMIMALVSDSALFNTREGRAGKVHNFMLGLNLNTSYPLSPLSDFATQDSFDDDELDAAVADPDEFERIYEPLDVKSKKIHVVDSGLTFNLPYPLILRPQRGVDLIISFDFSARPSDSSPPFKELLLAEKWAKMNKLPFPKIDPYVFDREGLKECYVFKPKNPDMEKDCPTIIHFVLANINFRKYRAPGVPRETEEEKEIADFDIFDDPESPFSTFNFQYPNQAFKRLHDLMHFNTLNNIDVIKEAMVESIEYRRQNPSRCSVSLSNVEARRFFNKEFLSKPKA
As to the kind of experiment: cPLA2 Inhibitory Activity. It is filed as biochemical. The conditions noted are these: 1-palmitoyl-2-[14C]-arachidonoyl-sn-glycero-3-phosphocholine 2.5 μM, sn-1,2-dioleoylglycerol 1.25 μM; pH 7.5, 15 min at 37° C. As for the experimental part:
Test Example 1 cPLA2 Inhibitory Activity The compounds of the present invention were tested for the cPLA2 inhibitory activity according to the method disclosed in […]. Roberts, […], and J. E. Putnam, J. Biol. Chem., 1991, 266, 5268-5272 as outlined below. […] The reaction mixture includes 50 mM HEPES buffer (pH 7.5), 1 mM calcium chloride, 150 mM sodium chloride, 0.1 mg/ml bovine serum albumin, and 1.7 mM dithiothreitol. To the reaction mixture was added the compound of the present invention and the substrate solution. The reaction was allowed to start by adding an enzyme and continued for 15 min at 37° C. The fatty acids released by the reaction were extracted by the method described in V. P. Dole, and H. Meinertz, J. Biol. Chem., 1960, 235, 2595-2599 and its radiation activity was measured on a liquid scintillation counter. Control was obtained by conducting the experiment in the same manner except that a compound of the present invention was not added.
Compound `O=C1NC(=O)/C(=C/c2ccc(C(=O)NC[C@@H]3C[C@@H](OCc4ccccc4-c4ccccc4)CN3C(=O)CCC(=O)c3ccccc3)cc2)S1` [Compound A-7] displayed an IC50 of 5 µM. In other words, the single-digit micromolar range.

Compound `O=C1NC(=O)/C(=C/c2ccc(C(=O)NC[C@@H]3C[C@@H](OCc4ccccc4-c4ccccc4)CN3C(=O)/C=C\C(=O)c3ccccc3)cc2)S1` [Compound A-8] displayed an IC50 of 24 µM.

In the case of `C/C(=C/C(=O)c1ccccc1)C(=O)N1C[C@H](OCc2ccccc2-c2ccccc2)C[C@H]1CNC(=O)c1ccc(/C=C2\SC(=O)NC2=O)cc1` [Compound A-9], the 50% inhibitory concentration (IC50) came out at 5.5 µM. This IC50 lies about 4.4-fold lower than the previous one.

Take `CC(=O)Nc1ccccc1C(=O)c1ccccc1C(=O)N1C[C@H](OCc2ccccc2-c2ccccc2)C[C@H]1CNC(=O)c1ccc(/C=C2\SC(=O)NC2=O)cc1` [Compound A-24]: inhibition was half-maximal at 5.8 µM (IC50).

Compound `Cc1c(CO[C@@H]2C[C@@H](CNC(=O)c3ccc(/C=C4\SC(=O)NC4=O)cc3)N(C(=O)c3ccccc3C(=O)c3ccc(F)cc3)C2)cccc1-c1ccccc1` [Compound A-31] returned a concentration for half-maximal inhibition (IC50) of 0.2 µM.

For the compound `O=C1NC(=O)/C(=C/c2ccc(C(=O)NC[C@@H]3C[C@@H](OCc4cccc(-c5ccc6ccccc6c5)c4)CN3C(=O)c3ccccc3C(=O)c3ccc(F)cc3)cc2)S1` [Compound A-42], the IC50 was determined as 0.14 µM.

On to `Nc1cccc(-c2ccccc2CO[C@@H]2C[C@@H](CNC(=O)c3ccc(/C=C4\SC(=O)NC4=O)cc3)N(C(=O)c3ccccc3C(=O)c3ccc(F)cc3)C2)c1` [Compound A-46], for which the IC50 worked out at 0.15 µM.

Compound `O=C(COc1ccc(/C=C2\SC(=O)NC2=O)cc1)NC[C@@H]1C[C@@H](OCc2ccccc2-c2ccccc2)CN1C(=O)c1ccccc1C(=O)c1ccc(F)cc1` [Compound A-50] registered an IC50 of 0.67 µM.

`O=C1NC(=O)C(CCCc2ccc(C(=O)NC[C@@H]3C[C@@H](OCc4ccccc4-c4ccccc4)CN3C(=O)c3ccccc3C(=O)c3ccc(F)cc3)cc2)S1` (some centres unmarked) [Compound A-51] displayed a half-inhibitory concentration (IC50) of 0.18 µM.

In the case of `O=C1NC(=O)/C(=C/c2ccc(C(=O)NC[C@@H]3C[C@@H](OCc4ccccc4-c4ccccc4)CN3C(=O)c3ccccc3C(=O)c3ccc(F)cc3)cc2)O1` [Compound A-54], the IC50 came to 0.14 µM. This IC50 and that of the compound before are within 1.5-fold of each other.

For `O=C1NC(=O)/C(=C/c2cccc(C(=O)NC[C@@H]3C[C@@H](OCc4ccccc4-c4ccccc4)CN3C(=O)c3ccccc3C(=O)c3ccc(F)cc3)c2)S1` [Compound A-56], 2.5 µM corresponded to half-maximal inhibition (IC50).

On to `O=C1NC(=O)/C(=C/c2ccc(C(=O)NC[C@@H]3C[C@@H](OCc4ccccc4-c4ccccc4)CN3C(=O)c3ccccc3C(=O)c3ccc(F)cc3)o2)S1` [Compound A-64], for which the IC50 came out at 2.2 µM.

The compound `O=C(/C=C/C#C/C=C1\SC(=O)NC1=O)NC[C@@H]1C[C@@H](OCc2ccccc2-c2ccccc2)CN1C(=O)c1ccccc1C(=O)c1ccc(F)cc1` [Compound A-66] returned an IC50 of 0.21 µM.

Turning to `O=C1NC(=O)/C(=C/c2ccc(C(=O)NC[C@@H]3C[C@@H](Oc4ccc5c6c4CCCN6CCC5)CN3C(=O)c3ccccc3C(=O)c3ccc(F)cc3)cc2)S1` [Compound A-92], the IC50 worked out at 0.057 µM.

`COc1cccc(-c2cccc(O[C@@H]3C[C@@H](CNC(=O)c4ccc(/C=C5\SC(=O)NC5=O)cc4)N(C(=O)c4ccccc4C(=O)c4ccc(F)cc4)C3)c2)c1` [Compound A-99] returned an IC50 of 0.037 µM.

As to `O=C1NC(=O)/C(=C/c2ccc(C(=O)NC[C@@H]3C[C@@H](Oc4ccccc4-c4cccnc4)CN3C(=O)c3ccccc3C(=O)c3ccc(F)cc3)cc2)S1` [Compound A-105], 0.15 µM corresponded to half-maximal inhibition (IC50).

`O=C1NC(=O)/C(=C/c2ccc(C(=O)NC[C@@H]3C[C@@H](Oc4cccc(-c5cccc(O)c5)c4)CN3C(=O)c3ccccc3C(=O)c3ccc(F)cc3)cc2)S1` [Compound A-106] yielded an IC50 of 0.2 µM. This IC50 and that of the compound before are within 1.5-fold of each other.

As for `CCOc1cccc(-c2ccccc2O[C@@H]2C[C@@H](CNC(=O)c3ccc(/C=C4\SC(=O)NC4=O)cc3)N(C(=O)c3ccccc3C(=O)c3ccc(F)cc3)C2)c1` [Compound A-110], half-maximal inhibition (IC50) required 0.1 µM.

Compound `O=C1NC(=O)/C(=C/c2ccc(C(=O)NC[C@@H]3C[C@@H](Oc4ccccc4-c4ccc(-c5ccccc5)cc4)CN3C(=O)c3ccccc3C(=O)c3ccc(F)cc3)cc2)S1` [Compound A-113] gave an IC50 of 0.12 µM.

`CC(C)c1cccc(-c2cccc3ccccc23)c1O[C@@H]1C[C@@H](CNC(=O)c2ccc(/C=C3\SC(=O)NC3=O)cc2)N(C(=O)c2ccccc2C(=O)c2ccc(F)cc2)C1` [Compound A-114] yielded an IC50 of 0.02 µM.

`CC(C)Oc1ccccc1-c1ccccc1O[C@@H]1C[C@@H](CNC(=O)c2ccc(/C=C3\SC(=O)NC3=O)cc2)N(C(=O)c2ccccc2C(=O)c2ccc(F)cc2)C1` [Compound A-121] registered an IC50 of 0.065 µM.

Compound `CC(C)Cc1cccc(-c2ccccc2)c1O[C@@H]1C[C@@H](CNC(=O)c2ccc(/C=C3\SC(=O)NC3=O)cc2)N(C(=O)c2ccccc2C(=O)c2ccc(F)cc2)C1` [Compound A-124] had an IC50 of 0.024 µM.

In turn, `CC(C)Cc1cccc(-c2cccc3ccccc23)c1O[C@@H]1C[C@@H](CNC(=O)c2ccc(/C=C3\SC(=O)NC3=O)cc2)N(C(=O)c2ccccc2C(=O)c2ccc(F)cc2)C1` [Compound A-125] gave an IC50 of 0.0066 µM.

Take `CC(C)Cc1cccc(-c2ccccc2C(C)C)c1O[C@@H]1C[C@@H](CNC(=O)c2ccc(/C=C3\SC(=O)NC3=O)cc2)N(C(=O)c2ccccc2C(=O)c2ccc(F)cc2)C1` [Compound A-126]: the IC50 stood at 0.0055 µM. The IC50 values of the last two compounds are within 1.5-fold of each other.

With `O=C1NC(=O)C(=CC2CCN(C(=O)[C@@H]3C[C@@H](OCc4ccccc4-c4ccccc4)CN3C(=O)c3ccccc3C(=O)c3ccc(F)cc3)CC2)S1` [Compound B-9], 14 µM corresponded to half-maximal inhibition (IC50).

Consider `O=C1NC(=O)/C(=C/c2ccc(/C=C\[C@@H]3C[C@@H](OCc4ccccc4-c4ccccc4)CN3C(=O)c3ccccc3C(=O)c3ccc(F)cc3)s2)S1` [Compound E-6], for which half-maximal inhibition (IC50) required 1.5 µM.

In turn, `O=C1NC(=S)S/C1=C\c1ccc(/C=C/[C@@H]2C[C@@H](OCc3ccccc3-c3ccccc3)CN2C(=O)c2ccccc2C(=O)c2ccc(F)cc2)s1` [Compound E-7] had an IC50 of 1.6 µM.

`O=C1NC(=O)/C(=C/c2ccc(/C=C/[C@@H]3C[C@@H](OCc4ccccc4-c4ccccc4)CN3C(=O)c3ccccc3C(=O)c3ccc(F)cc3)s2)S1` [Compound E-8] yielded a concentration for half-maximal inhibition (IC50) of 1.4 µM.

The compound `O=C1NC(=S)S/C1=C\c1ccc(CCC[C@@H]2C[C@@H](OCc3ccccc3-c3ccccc3)CN2C(=O)c2ccccc2C(=O)c2ccc(F)cc2)cc1` [Compound E-10] displayed a 50% inhibitory concentration (IC50) of 0.79 µM.

For `O=C1NC(=S)S/C1=C\c1ccc(/C=C\C[C@@H]2C[C@@H](OCc3ccccc3-c3ccccc3)CN2C(=O)c2ccccc2C(=O)c2ccc(F)cc2)cc1` [Compound E-11], half-maximal inhibition (IC50) required 0.32 µM.

`O=C1NC(=S)S/C1=C\c1ccc(/C=C/C[C@@H]2C[C@@H](OCc3ccccc3-c3ccccc3)CN2C(=O)c2ccccc2C(=O)c2ccc(F)cc2)cc1` [Compound E-13]: the IC50 worked out at 0.077 µM.

For the compound `O=C1NC(=O)/C(=C/c2ccc(C(=O)NCCC[C@@H]3C[C@@H](OCc4ccccc4-c4ccccc4)CN3C(=O)c3ccccc3C(=O)c3ccc(F)cc3)cc2)S1` [Compound F-1], the IC50 is 15 µM.

`O=C1NC(=O)/C(=C/c2ccc(C(=O)NCC[C@@H]3C[C@@H](OCc4ccccc4-c4ccccc4)CN3C(=O)c3ccccc3C(=O)c3ccc(F)cc3)cc2)S1` [Compound F-2]: half-maximal inhibition (IC50) required 4.7 µM.

Take `CN(Cc1ccc(/C=C2\SC(=S)NC2=O)cc1)C[C@@H]1C[C@@H](OCc2ccccc2-c2ccccc2)CN1C(=O)c1ccccc1C(=O)c1ccc(F)cc1` [Compound G-2]: the IC50 is 5.4 µM.

For `CN(Cc1ccc(/C=C2\SC(=O)NC2=O)cc1)C[C@@H]1C[C@@H](OCc2ccccc2-c2ccccc2)CN1C(=O)c1ccccc1C(=O)c1ccc(F)cc1` [Compound G-3], the IC50 was found to be 3.3 µM. Compared with the last compound, the IC50 is about 1.6-fold lower.

`CC(=O)N(Cc1ccc(/C=C2\SC(=S)NC2=O)cc1)C[C@@H]1C[C@@H](OCc2ccccc2-c2ccccc2)CN1C(=O)c1ccccc1C(=O)c1ccc(F)cc1` [Compound G-5] had an IC50 of 1.6 µM.

The compound `CC(=O)N(Cc1ccc(/C=C2\SC(=O)NC2=O)cc1)C[C@@H]1C[C@@H](OCc2ccccc2-c2ccccc2)CN1C(=O)c1ccccc1C(=O)c1ccc(F)cc1` [Compound G-7] displayed an IC50 of 2.8 µM.

Turning to `O=C1NC(=S)S/C1=C\c1ccc(CN(C[C@@H]2C[C@@H](OCc3ccccc3-c3ccccc3)CN2C(=O)c2ccccc2C(=O)c2ccc(F)cc2)C(=O)c2ccccc2)cc1` [Compound G-8], the midpoint of inhibition, the IC50, lay at 1.1 µM.

For orientation: IC50 means the concentration at which inhibition is half-maximal. Lower therefore signals higher potency.
